This passage reports EC50, CC50 and selectivity ratio results from ChEMBL document CHEMBL4017481, “Computer-aided discovery of two novel chalcone-like compounds active and selective against Leishmania infantum” (Bioorg Med Chem Lett, 2017).

Bounds are passed on as bounds.

One series concerns Leishmania infantum. In words: microbe, parasite or virus in culture. Format: functional. Conditions: MHOM/BR/1972/BH046, 72 h.
Series [1] in a line: (§1) Cytotoxicity against human THP1 cells measured after 72 hrs by resazurin assay. Format: cell-based, THP-1. The conditions noted are these: THP-1 cells.
A short description of series [2]: (§2) Cytotoxicity against African green monkey Vero cells measured after 72 hrs by resazurin assay. Conditions: chlorocebus sabaeus, Vero cells. Format: cell-based.
Series [3] is described as follows: in vitro. The conditions noted are these: human.
Description: Selectivity index, ratio of CC50 for human THP1 cells to EC50 for Leishmania infantum MHOM/BR/1972/BH046 amastigotes
The nature of series [4]: in vitro. Conditions: monkey, Vero cells.
Description: Selectivity index, ratio of CC50 for African green monkey Vero cells to EC50 for Leishmania infantum MHOM/BR/1972/BH046 amastigotes
Another series relates to THP-1. Described as §1. Format: cell-based. The conditions noted are these: thp-1, 72 h.
The test system of the next series is Vero. The description is as §2. Format: cell-based. Conditions: chlorocebus sabaeus, vero, 72 h.

Description for Leishmania infantum: Anti-leishmanial activity against Leishmania infantum MHOM/BR/1972/BH046 amastigotes infected in cells measured after 3 days by Draq5 staining based assay

As for `O=C(/C=C/c1ccc([N+](=O)[O-])o1)c1ccc(Br)cc1`, in the series with Leishmania infantum, a half-maximal effect (EC50) was put at 29.1 µM. Further, the CC50 at 72 h in series [1] is 13.4 µM; in series [2] it was above 100 µM. Moreover, the selectivity ratio stood at 0.46 in the series “in vitro [3]” (THP-1 cells) and 3.4 in the series “in vitro [4]”.
The compound `O=C(/C=C/c1ccc([N+](=O)[O-])o1)c1ccc(N2CCCCC2)cc1` showed an EC50 in the series with Leishmania infantum of 6.32 µM. Further, the CC50 in the series with THP-1 was above 50 µM; in the series with Vero, 349 µM. The selectivity ratio was above 7.91 in “in vitro [3]” (THP-1 cells) and 55 in the series “in vitro [4]”.
For `O=C(/C=C/c1ccc([N+](=O)[O-])o1)c1ccc(N2CCOCC2)cc1`, the CC50 at 72 h in series [1] is 49 µM; in series [2], above 100 µM.
`COc1ccc(/C=C/C(=O)c2cccc(Br)c2)cc1`: the EC50 in the series with Leishmania infantum is above 50 µM. The results for the CC50 at 72 h in series [1] and in series [2] were above 50 µM and above 100 µM, respectively. In addition, in the series “in vitro [3]” (THP-1 cells), the selectivity ratio is above 50.
On to `COc1ccc(/C=C/C(=O)c2cccc(I)c2)cc1`, for which the concentration for a half-maximal effect (EC50) in the series with Leishmania infantum is above 50 µM. Moreover, the values for the CC50 in the series with THP-1 and in the series on Vero were above 50 µM and above 100 µM, respectively. Moreover, the selectivity ratio in the series “in vitro [4]” was determined as 2.
Turning to `COc1ccc(/C=C/C(=O)c2ccc(-c3ccccc3)cc2)cc1`, in the series with Leishmania infantum, the EC50 was above 50 µM. For the same compound, the 50% cytotoxic concentration (CC50) in the series on THP-1 was above 50 µM.
Compound `CN(C)c1ccc(/C=C/C(=O)c2ccc(-c3ccccc3)cc2)cc1` had an EC50 with Leishmania infantum above 50 µM. Also, in the series on THP-1, the CC50 was above 50 µM.
Compound `O=C(/C=C/c1ccc([N+](=O)[O-])o1)c1ccc(N2CCCC2)cc1` gave an EC50 with Leishmania infantum of 11.8 µM. The same compound registered a CC50 at 72 h in series [1] above 50 µM. Also, the selectivity ratio in “in vitro [3]” (THP-1 cells) is above 4.26.
Take `CC(C)(C)c1ccc(C(=O)/C=C/c2ccc([N+](=O)[O-])s2)cc1`: it took 31.1 µM to reach a half-maximal effect in the series with Leishmania infantum (EC50). Besides, in series [1], the CC50 at 72 h was in the range of 8.4 to 8.49 µM. In the series on Vero, this compound had a CC50 above 100 µM. The selectivity ratio in “in vitro [3]” (THP-1 cells) was in the range of 0.2 to 0.27; in the series “in vitro [4]” it was 3 to 3.2.
Compound `Cc1cccc(C(=O)/C=C/c2ccc([N+](=O)[O-])o2)c1` yielded an EC50 with Leishmania infantum above 50 µM. For the same compound, the values for the CC50 at 72 h in series [1] and in series [2] were 42.1 µM and 55.1 µM, respectively. Besides, the selectivity ratio in “in vitro [3]” (THP-1 cells) was above 50.
As for `O=C(/C=C/c1ccc([N+](=O)[O-])cc1)c1ccc(N2CCCCC2)cc1`, the EC50 with Leishmania infantum was above 50 µM. Further, in the series with THP-1, the CC50 was above 50 µM.
The compound `O=C(/C=C/c1ccc([N+](=O)[O-])o1)c1ccc(-n2ccnc2)cc1` came in with an EC50 with Leishmania infantum of 12.4 µM. In addition, the CC50 at 72 h was 22.2 µM in series [1] and above 100 µM in series [2]. Moreover, the selectivity ratio in “in vitro [3]” (THP-1 cells) was 1.79; in “in vitro [4]”, 8.1.
Turning to `O=C(/C=C/c1ccc([N+](=O)[O-])o1)c1ccc(N2CCNCC2)cc1`, the EC50 in the series on Leishmania infantum was 9.6 µM. Moreover, the CC50 in the series on THP-1 is above 50 µM; in the series on Vero it was above 100 µM. Besides, the selectivity ratio in the series “in vitro [3]” (THP-1 cells) was above 5.2; in the series “in vitro [4]”, 10 to 10.4.
Consider `Cc1ccc(C(=O)/C=C/c2ccc([N+](=O)[O-])s2)cc1`, for which, in the series on Leishmania infantum, the EC50 is above 50 µM. Moreover, in series [1], the midpoint of cytotoxicity, the CC50 at 72 h, lay at 13.5 µM.
In series [1], `O=C(/C=C/c1ccc([N+](=O)[O-])o1)c1ccc(C2CCCCC2)cc1` gave a CC50 at 72 h of 3.1 to 31.1 µM. The CC50 in the series on Vero was above 100 µM. Moreover, the selectivity ratio in the series “in vitro [3]” (THP-1 cells) is 2.8 to 2.84; in the series “in vitro [4]”, 9.1 to 10.
Regarding `O=C(/C=C/c1ccc([N+](=O)[O-])o1)c1ccc(I)cc1`, in series [1], the CC50 at 72 h amounted to 49.5 µM. Also, in the series with Vero, the CC50 was above 100 µM. Besides, the selectivity ratio in the series “in vitro [3]” (THP-1 cells) was 1.8 to 1.82; in “in vitro [4]”, 3.6.
In turn, `O=C(/C=C/c1ccc([N+](=O)[O-])s1)c1ccc(C2CCCCC2)cc1` came in with an EC50 in the series on Leishmania infantum above 50 µM. The same compound displayed a CC50 at 72 h in series [1] above 50 µM.
`O=C(/C=C/c1ccc([N+](=O)[O-])s1)c1ccc(N2CCOCC2)cc1` yielded an EC50 in the series on Leishmania infantum above 50 µM. The compound further returned a CC50 at 72 h in series [1] of 39.9 µM.
`CC(C)(C)c1ccc(C(=O)/C=C/c2ccco2)cc1` displayed an EC50 in the series on Leishmania infantum above 50 µM. In series [1], this compound returned a CC50 at 72 h above 50 µM.
Turning to `CC(C)(C)c1ccc(C(=O)/C=C/c2ccc([N+](=O)[O-])o2)cc1`, the EC50 with Leishmania infantum is above 50 µM. Further, the CC50 at 72 h in series [1] is above 50 µM; in series [2], above 100 µM.
As for `Cc1ccccc1C(=O)/C=C/c1ccc([N+](=O)[O-])o1`, the EC50 in the series on Leishmania infantum was determined as 37.7 µM. For the same compound, the figures for the CC50 at 72 h in series [1] and in series [2] were 27.9 µM and 41.3 µM, respectively. The selectivity ratio in “in vitro [3]” (THP-1 cells) came to 0.74; in “in vitro [4]” it was 1.
Take `CSc1ccc(C(=O)/C=C/c2ccc([N+](=O)[O-])s2)cc1`: the EC50 with Leishmania infantum is above 50 µM. Further, the CC50 at 72 h was 8.56 µM in series [1] and above 100 µM in series [2].
In the series with Leishmania infantum, `O=C(/C=C/c1ccco1)c1ccc(N2CCCCC2)cc1` showed an EC50 above 50 µM. Also, in series [1], the CC50 at 72 h was above 50 µM. Moreover, the selectivity ratio in “in vitro [3]” (THP-1 cells) was above 50.
`O=C(/C=C/c1ccc([N+](=O)[O-])o1)c1ccc(-c2ccccc2)cc1` gave an EC50 with Leishmania infantum of 21.4 µM. The CC50 at 72 h is 50.4 µM in series [1] and above 100 µM in series [2]. The selectivity ratio stood at 2.35 in the series “in vitro [3]” (THP-1 cells) and 4.7 in the series “in vitro [4]”.
As to `O=C(/C=C/c1ccc([N+](=O)[O-])s1)c1ccc(-n2ccnc2)cc1`, in the series with Leishmania infantum, it took 31.4 µM to reach a half-maximal effect (EC50). In addition, the figures for the CC50 at 72 h in series [1] and in series [2] were 23.4 µM and 42.7 µM, respectively. Moreover, the selectivity ratio in “in vitro [3]” (THP-1 cells) worked out at 0.75; in the series “in vitro [4]”, 1.3.
Take `CSc1ccc(C(=O)/C=C/c2ccco2)cc1`: the EC50 with Leishmania infantum is 45.5 µM. The CC50 at 72 h in series [1] was above 50 µM. Besides, the selectivity ratio in “in vitro [3]” (THP-1 cells) was above 1.09.
For `CCCCc1ccc(C(=O)/C=C/c2ccc([N+](=O)[O-])s2)cc1`, in the series on Leishmania infantum, the EC50 was above 50 µM. The CC50 at 72 h in series [1] is 17.1 µM; in series [2], 81.3 µM.
For `O=C(/C=C/c1cccc([N+](=O)[O-])c1)c1ccc(N2CCCCC2)cc1`, it took 30.8 µM to reach a half-maximal effect in the series with Leishmania infantum (EC50). In addition, the half-maximal cytotoxic concentration (CC50) in the series on THP-1 was above 50 µM. The selectivity ratio in the series “in vitro [3]” (THP-1 cells) is above 1.62.
`CCCCc1ccc(C(=O)/C=C/c2ccc([N+](=O)[O-])o2)cc1`: the EC50 in the series on Leishmania infantum was above 50 µM. Moreover, the results for the CC50 at 72 h in series [1] and in series [2] were 48.7 µM and 75.7 µM, respectively.
The compound `O=C(/C=C/c1ccc(Cl)s1)c1ccc(-n2ccnc2)cc1` registered an EC50 in the series with Leishmania infantum of 21.4 µM. The same compound had a CC50 at 72 h in series [1] above 50 µM. Besides, the selectivity ratio in the series “in vitro [3]” (THP-1 cells) was above 2.33.
As to `O=C(/C=C/c1ccc([N+](=O)[O-])o1)c1cccc(Br)c1`, in the series with Leishmania infantum, the EC50 worked out at 23.8 µM. Further, the figures for the CC50 in the series with THP-1 and in the series with Vero were 14.9 µM and 68.8 µM, respectively. In addition, the selectivity ratio in the series “in vitro [3]” (THP-1 cells) fell in the range of 0.6 to 0.63; in the series “in vitro [4]”, 2.8 to 2.9.
The compound `CSc1ccc(C(=O)/C=C/c2ccc([N+](=O)[O-])o2)cc1` returned an EC50 in the series with Leishmania infantum of 9.31 µM. The compound further had a CC50 at 72 h in series [1] of 13.1 µM. For the same compound, the CC50 with Vero amounted to 40.7 µM. In addition, the selectivity ratio in “in vitro [3]” (THP-1 cells) is 1.4 to 1.41; in the series “in vitro [4]” it was 4.3.
Turning to `C[C@@H]1[C@H](O)[C@@H](C)/C=C/C=C/C=C/C=C/C=C/C=C/C=C/[C@H](O[C@@H]2O[C@H](C)[C@@H](O)[C@H](N)[C@@H]2O)C[C@@H]2O[C@](O)(C[C@@H](O)C[C@@H](O)[C@H](O)CC[C@@H](O)C[C@@H](O)CC(=O)O[C@H]1C)C[C@H](O)[C@H]2C(=O)O` [AMPHOTERICIN B], the EC50 with Leishmania infantum stood at 1.92 µM. For the same compound, the half-maximal cytotoxic concentration (CC50) at 72 h in series [1] is above 50 µM. Besides, the selectivity ratio in “in vitro [3]” is above 26.
